This passage reports relative viability results from the supplement of paper PMC10307832.

Holding throughout (assay): relative viability (nuclei count vs DMSO), 5 days (fraction); higher = more cells survive
Compound in the assay “AZD5582 + Bortezomib”: C[C@@H](C(=O)N[C@@H](C1CCCCC1)C(=O)N2CCC[C@H]2C(=O)N[C@@H]3[C@@H](CC4=CC=CC=C34)OCC#CC#CCO[C@@H]5CC6=CC=CC=C6[C@@H]5NC(=O)[C@@H]7CCCN7C(=O)[C@H](C8CCCCC8)NC(=O)[C@H](C)NC)NC [AZD5582] + CC(C)C[C@H](NC(=O)[C@H](Cc1ccccc1)NC(=O)c1cnccn1)B(O)O [Bortezomib] (partner 0.002 µM)
The essentials:
(§1)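 Values are medians from duplicate plates. Each reflects relative viability, defined as the nuclei count of treated wells over that of vehicle wells. Lung cancer cell lines in 1536-well plates were pin-tool dosed one day after seeding with one drug alone or with a fixed anchor-drug dose plus five library-drug doses (not always all listed) in √10 steps, then fixed, stained and imaged at 4× after 5 days.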

Compound in the assay “AZD5582 + Pictilisib”: C[C@@H](C(=O)N[C@@H](C1CCCCC1)C(=O)N2CCC[C@H]2C(=O)N[C@@H]3[C@@H](CC4=CC=CC=C34)OCC#CC#CCO[C@@H]5CC6=CC=CC=C6[C@@H]5NC(=O)[C@@H]7CCCN7C(=O)[C@H](C8CCCCC8)NC(=O)[C@H](C)NC)NC [AZD5582] + CS(=O)(=O)N1CCN(Cc2cc3nc(-c4cccc5[nH]ncc45)nc(N4CCOCC4)c3s2)CC1 [Pictilisib] (partner 1 µM)
The method, boiled down: as §1

Compound in the assay “Temozolomide + Lapatinib”: Cn1nnc2c(C(N)=O)ncn2c1=O [Temozolomide] + CS(=O)(=O)CCNCc1ccc(-c2ccc3ncnc(Nc4ccc(OCc5cccc(F)c5)c(Cl)c4)c3c2)o1 [Lapatinib] (partner 2 µM)
The essentials: as §1

Compound in the assay “Temozolomide + Olaparib”: Cn1nnc2c(C(N)=O)ncn2c1=O [Temozolomide] + O=C(c1cc(Cc2n[nH]c(=O)c3ccccc23)ccc1F)N1CCN(C(=O)C2CC2)CC1 [Olaparib] (partner 8 µM)
The method, boiled down:
as §1

Take NCI-H1703: the relative viability was 0.228 in the assay with AZD5582 + Bortezomib (first compound 0.001581 µM); 0.277 with AZD5582 + Bortezomib (first compound 0.005 µM); 0.43 with AZD5582 + Bortezomib (first compound 0.01581 µM); 0.2 with AZD5582 + Bortezomib (first compound 0.05 µM); 0.255 in the assay with AZD5582 + Pictilisib (first compound 0.005 µM); 0.291 in the assay with AZD5582 + Pictilisib (first compound 0.01581 µM). Besides, the relative viability amounted to 0.251 with AZD5582 + Pictilisib (first compound 0.05 µM); 1.39 with Temozolomide + Lapatinib (first compound 0.2 µM); 1.08 with Temozolomide + Lapatinib (first compound 0.6325 µM); 1.59 with Temozolomide + Lapatinib (first compound 2 µM); 0.972 with Temozolomide + Lapatinib (first compound 6.325 µM); 1.21 with Temozolomide + Lapatinib (first compound 20 µM). Besides, the relative viability with Temozolomide + Olaparib (first compound 0.2 µM) was 0.497; in the assay with Temozolomide + Olaparib (first compound 0.6325 µM), 0.43; in the assay with Temozolomide + Olaparib (first compound 2 µM) it was 0.469; with Temozolomide + Olaparib (first compound 6.325 µM), 0.405; with Temozolomide + Olaparib (first compound 20 µM), 0.448.
